# Reference: the supplement of paper PMC10307832
# Key:
# Assay in all cases: relative viability (nuclei count vs DMSO), 5 days (fraction); higher = more cells survive
# Crenolanib + Alpelisib = compound: CC1(COc2ccc3c(c2)ncn3-c2ccc3cccc(N4CCC(N)CC4)c3n2)COC1 [Crenolanib] + Cc1nc(NC(=O)N2CCC[C@H]2C(N)=O)sc1-c1ccnc(C(C)(C)C(F)(F)F)c1 [Alpelisib] (partner 2 µM)
# How it was run: (§1)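 Lung cancer cell lines were pin-tool dosed in 1536-well plates on the day after seeding, with either a lone drug or a fixed anchor-drug dose plus five library-drug doses (not always all listed) in √10 steps. Nuclei were counted on 4× images after 5 days. Relative viability is the ratio of treated-well to vehicle-well nuclei counts, with each value a median of duplicate plates.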
# Crenolanib + Olaparib = compound: CC1(COc2ccc3c(c2)ncn3-c2ccc3cccc(N4CCC(N)CC4)c3n2)COC1 [Crenolanib] + O=C(c1cc(Cc2n[nH]c(=O)c3ccccc23)ccc1F)N1CCN(C(=O)C2CC2)CC1 [Olaparib] (partner 8 µM)
# How it was run: as §1
# Tivantinib + Bortezomib = compound: O=C1NC(=O)[C@@H](c2cn3c4c(cccc24)CCC3)[C@@H]1c1c[nH]c2ccccc12 [Tivantinib] + CC(C)C[C@H](NC(=O)[C@H](Cc1ccccc1)NC(=O)c1cnccn1)B(O)O [Bortezomib] (partner 0.002 µM)
# How it was run: as §1
# Tivantinib + Linsitinib = compound: O=C1NC(=O)[C@@H](c2cn3c4c(cccc24)CCC3)[C@@H]1c1c[nH]c2ccccc12 [Tivantinib] + C[C@]1(O)C[C@@H](c2nc(-c3ccc4ccc(-c5ccccc5)nc4c3)c3c(N)nccn32)C1 [Linsitinib] (partner 1 µM)
# How it was run: as §1
Cell Line,relative viability (Crenolanib + Alpelisib; first compound 0.01 µM),relative viability (Crenolanib + Alpelisib; first compound 0.03162 µM),relative viability (Crenolanib + Alpelisib; first compound 0.1 µM),relative viability (Crenolanib + Alpelisib; first compound 0.3162 µM),relative viability (Crenolanib + Alpelisib; first compound 1 µM),relative viability (Crenolanib + Olaparib; first compound 0.01 µM),relative viability (Crenolanib + Olaparib; first compound 0.03162 µM),relative viability (Crenolanib + Olaparib; first compound 0.1 µM),relative viability (Crenolanib + Olaparib; first compound 0.3162 µM),relative viability (Crenolanib + Olaparib; first compound 1 µM),relative viability (Tivantinib + Bortezomib; first compound 0.01 µM),relative viability (Tivantinib + Bortezomib; first compound 0.03162 µM),relative viability (Tivantinib + Bortezomib; first compound 0.1 µM),relative viability (Tivantinib + Bortezomib; first compound 0.3162 µM),relative viability (Tivantinib + Linsitinib; first compound 0.01 µM),relative viability (Tivantinib + Linsitinib; first compound 0.03162 µM),relative viability (Tivantinib + Linsitinib; first compound 0.1 µM),relative viability (Tivantinib + Linsitinib; first compound 0.3162 µM)
ABC-1,1.06,1.13,0.772,0.999,0.898,1.01,0.78,0.614,0.668,0.625,0.287,0.243,0.337,0.301,0.767,0.826,0.557,0.646
SW 900,–,–,–,–,–,0.925,–,0.8,0.959,0.979,–,–,–,–,–,–,–,–
PC-14,1.01,0.969,0.858,1.04,0.894,0.255,0.257,0.299,0.249,0.257,0.873,0.917,0.777,0.822,0.941,0.923,0.931,0.892
NCI-H1648,–,–,–,–,–,1.08,–,0.717,0.899,0.853,–,–,–,–,–,–,–,–
A549,0.808,0.795,0.743,0.798,0.747,0.474,0.317,0.329,0.421,0.365,–,–,–,–,0.691,0.545,0.539,0.368
A-427,1.06,1.1,1.02,1.12,0.977,0.79,–,0.759,0.847,0.629,0.997,1,0.854,1.06,1.12,1.12,1.12,1.05
NCI-H1915,1.04,1.07,1.04,1.07,0.874,0.267,0.278,0.266,0.283,0.244,0.982,0.961,0.946,0.975,1.1,1.14,1.12,1.08
LOU-NH91,0.784,0.755,0.635,0.641,0.694,0.943,0.88,0.837,0.971,0.905,0.479,0.496,0.522,0.473,0.859,0.884,0.958,0.536
NCI-H1734,0.707,0.664,0.653,0.855,0.737,0.617,0.676,0.568,0.7,0.605,0.932,1.01,0.843,1,0.937,0.846,0.839,0.85
LCLC-97TM1,0.257,0.287,0.326,0.287,0.308,0.395,0.53,0.383,0.42,0.412,0.742,0.734,0.517,0.764,0.176,0.174,0.174,0.14
RERF-LC-KJ,0.839,0.761,0.802,1.03,0.73,0.864,0.942,0.871,1.03,0.93,1.18,1.22,1.19,0.963,0.895,0.945,0.826,0.808
BEN,0.917,0.895,0.904,0.972,0.97,1.15,0.96,0.966,1.01,1.05,0.75,0.561,0.744,0.824,0.998,0.725,0.826,0.693
NCI-H1703,0.33,0.378,0.242,0.174,0.151,0.376,0.383,0.175,0.242,0.192,0.36,0.362,0.29,0.31,0.828,0.456,0.783,0.687
LCLC-103H,0.852,0.859,0.888,0.886,0.942,0.751,0.759,0.68,0.698,0.712,0.909,0.895,0.966,1.03,1.03,0.944,1.03,0.996
SW 1573,0.824,0.765,0.706,0.954,0.608,0.589,0.416,0.44,0.651,0.484,1.16,1.17,1.1,1.29,0.762,0.853,0.77,0.789
ChaGo-K-1,–,–,–,–,–,0.398,0.406,0.426,0.422,0.45,0.96,0.957,0.941,0.989,–,–,–,–
NCI-H358,0.897,1.01,0.756,0.991,0.605,0.641,0.594,0.529,0.678,0.603,–,–,–,–,0.725,0.717,0.617,0.328
NCI-H1944,0.881,0.892,0.742,0.927,0.819,0.404,0.387,0.412,0.413,0.397,–,–,–,–,1.07,1.06,1.01,0.583
NCI-H2342,–,–,–,–,–,0.445,0.484,0.411,0.445,0.494,–,–,–,–,–,–,–,–
NCI-H522,–,–,–,–,–,0.581,0.676,0.639,0.591,0.62,–,–,–,–,–,–,–,–
SK-MES-1,0.849,0.972,0.866,0.916,0.95,0.759,0.705,0.682,0.791,0.674,–,–,–,–,1.13,1.03,0.98,0.82
NCI-H2170,0.856,0.815,0.814,0.951,0.912,0.608,0.674,0.54,0.711,0.671,–,–,–,–,–,–,–,–
NCI-H1793,0.684,0.964,0.712,0.76,0.717,0.993,0.947,0.889,1.13,0.762,–,–,–,–,0.994,0.843,0.813,–
